In US20090304692A1, “TRIAZINE COMPOUNDS AS PI3 KINASE AND MTOR INHIBITORS” (Wyeth, priority 2008, published 2009):
pIC50: −log10 of the molar value. “And” between values parts separate entries of the source, which are not always exact repeats. Identical values can stand only once. Like-named read-outs stand apart in the source and are kept apart here.

Assays:
Human mTOR (FLAG-TOR) = Human mTOR (FLAG-TOR) (Homo sapiens, UniProt P42345); assay: mTOR kinase assay (DELFIA format, purified enzyme); format: biochemical; details: read-out: IC50 mTOR
PI3K-α = PI3K-α (Homo sapiens, UniProt P42336); assay: PI3K-alpha fluorescence polarization assay; details: read-out: IC50 PI3Kα
PI3K-γ = PI3K-γ (Homo sapiens, UniProt P48736); assay: PI3K-gamma fluorescence polarization assay; details: read-out: IC50 PI3Kγ
Chain of PI3K-γ (P48736 whole entry, species assumed): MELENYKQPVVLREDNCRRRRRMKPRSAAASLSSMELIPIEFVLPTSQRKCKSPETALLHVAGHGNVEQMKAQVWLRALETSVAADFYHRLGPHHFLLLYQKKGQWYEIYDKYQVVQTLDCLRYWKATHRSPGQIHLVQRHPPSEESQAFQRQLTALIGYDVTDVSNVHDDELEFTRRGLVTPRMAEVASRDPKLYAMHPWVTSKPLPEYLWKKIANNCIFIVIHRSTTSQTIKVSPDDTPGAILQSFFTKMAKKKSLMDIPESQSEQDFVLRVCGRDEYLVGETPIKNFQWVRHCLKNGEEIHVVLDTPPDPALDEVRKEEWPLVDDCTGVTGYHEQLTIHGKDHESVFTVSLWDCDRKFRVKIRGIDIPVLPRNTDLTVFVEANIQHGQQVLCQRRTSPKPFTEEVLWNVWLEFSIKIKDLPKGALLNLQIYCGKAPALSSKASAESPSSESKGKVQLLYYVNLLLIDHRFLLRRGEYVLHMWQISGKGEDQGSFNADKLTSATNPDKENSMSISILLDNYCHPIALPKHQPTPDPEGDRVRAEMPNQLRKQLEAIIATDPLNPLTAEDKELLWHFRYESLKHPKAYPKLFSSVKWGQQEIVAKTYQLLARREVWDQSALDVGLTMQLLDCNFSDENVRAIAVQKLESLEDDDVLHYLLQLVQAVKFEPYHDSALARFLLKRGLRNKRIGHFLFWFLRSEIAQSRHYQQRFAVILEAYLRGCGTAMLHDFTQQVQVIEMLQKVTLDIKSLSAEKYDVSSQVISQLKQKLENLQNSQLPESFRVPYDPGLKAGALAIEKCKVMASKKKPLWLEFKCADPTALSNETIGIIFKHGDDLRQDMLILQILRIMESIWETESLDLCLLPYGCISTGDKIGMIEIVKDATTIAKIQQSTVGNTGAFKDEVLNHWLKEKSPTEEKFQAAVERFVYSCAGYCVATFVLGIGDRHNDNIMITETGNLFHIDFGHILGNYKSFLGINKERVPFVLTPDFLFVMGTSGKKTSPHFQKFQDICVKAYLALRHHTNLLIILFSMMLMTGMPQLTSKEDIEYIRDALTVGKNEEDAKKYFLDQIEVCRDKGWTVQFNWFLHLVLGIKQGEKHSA

Chain of PI3K-α (P42336 whole entry, species assumed): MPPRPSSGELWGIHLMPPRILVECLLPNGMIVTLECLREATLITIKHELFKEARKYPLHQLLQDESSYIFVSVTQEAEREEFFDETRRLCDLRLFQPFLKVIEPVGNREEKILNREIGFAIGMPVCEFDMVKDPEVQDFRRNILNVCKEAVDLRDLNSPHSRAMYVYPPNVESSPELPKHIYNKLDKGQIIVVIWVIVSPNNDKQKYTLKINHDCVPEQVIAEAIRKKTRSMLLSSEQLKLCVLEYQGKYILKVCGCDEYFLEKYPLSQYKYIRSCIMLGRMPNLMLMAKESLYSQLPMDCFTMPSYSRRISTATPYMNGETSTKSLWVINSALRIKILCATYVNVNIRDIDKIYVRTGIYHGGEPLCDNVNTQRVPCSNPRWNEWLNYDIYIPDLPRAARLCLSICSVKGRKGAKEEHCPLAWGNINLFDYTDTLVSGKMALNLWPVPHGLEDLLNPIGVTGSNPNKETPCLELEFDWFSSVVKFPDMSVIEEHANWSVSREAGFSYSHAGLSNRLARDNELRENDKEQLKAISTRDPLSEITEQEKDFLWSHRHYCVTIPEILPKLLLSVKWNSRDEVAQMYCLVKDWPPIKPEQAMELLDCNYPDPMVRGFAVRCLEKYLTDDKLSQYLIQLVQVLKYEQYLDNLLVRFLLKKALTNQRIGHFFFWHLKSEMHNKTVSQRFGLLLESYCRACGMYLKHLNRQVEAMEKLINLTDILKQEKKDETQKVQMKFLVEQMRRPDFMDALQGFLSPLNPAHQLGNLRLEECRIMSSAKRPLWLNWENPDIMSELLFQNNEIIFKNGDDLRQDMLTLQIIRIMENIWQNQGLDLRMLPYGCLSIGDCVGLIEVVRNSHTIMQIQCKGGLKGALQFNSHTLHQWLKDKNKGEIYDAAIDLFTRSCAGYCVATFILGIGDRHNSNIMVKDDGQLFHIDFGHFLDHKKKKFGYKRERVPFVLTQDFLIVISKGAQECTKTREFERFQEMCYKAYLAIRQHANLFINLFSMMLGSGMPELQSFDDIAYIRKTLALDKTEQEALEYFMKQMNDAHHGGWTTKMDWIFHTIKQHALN
Chain of PI3K-α (P27986 whole entry partner, species assumed): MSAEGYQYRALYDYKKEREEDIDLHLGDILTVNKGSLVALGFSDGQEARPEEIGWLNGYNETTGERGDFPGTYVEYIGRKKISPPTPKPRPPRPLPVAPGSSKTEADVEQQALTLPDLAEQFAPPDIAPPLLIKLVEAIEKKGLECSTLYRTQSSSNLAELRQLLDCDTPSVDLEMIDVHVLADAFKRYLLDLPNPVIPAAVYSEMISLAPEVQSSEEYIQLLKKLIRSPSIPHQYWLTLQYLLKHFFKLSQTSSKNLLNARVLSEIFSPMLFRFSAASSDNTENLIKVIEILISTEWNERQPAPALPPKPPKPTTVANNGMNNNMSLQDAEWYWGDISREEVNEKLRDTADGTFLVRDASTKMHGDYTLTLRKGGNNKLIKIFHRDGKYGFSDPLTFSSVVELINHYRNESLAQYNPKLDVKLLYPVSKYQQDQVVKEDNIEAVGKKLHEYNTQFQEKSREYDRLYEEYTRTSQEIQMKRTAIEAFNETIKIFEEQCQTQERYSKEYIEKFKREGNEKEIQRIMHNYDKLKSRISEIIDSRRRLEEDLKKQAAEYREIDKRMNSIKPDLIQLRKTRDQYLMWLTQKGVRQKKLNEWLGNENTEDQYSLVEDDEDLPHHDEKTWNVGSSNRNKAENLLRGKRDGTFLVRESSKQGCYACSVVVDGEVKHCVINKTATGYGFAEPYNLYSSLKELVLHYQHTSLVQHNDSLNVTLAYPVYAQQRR
Chain of Human mTOR (FLAG-TOR) (P42345 1360-2549 limits assumed): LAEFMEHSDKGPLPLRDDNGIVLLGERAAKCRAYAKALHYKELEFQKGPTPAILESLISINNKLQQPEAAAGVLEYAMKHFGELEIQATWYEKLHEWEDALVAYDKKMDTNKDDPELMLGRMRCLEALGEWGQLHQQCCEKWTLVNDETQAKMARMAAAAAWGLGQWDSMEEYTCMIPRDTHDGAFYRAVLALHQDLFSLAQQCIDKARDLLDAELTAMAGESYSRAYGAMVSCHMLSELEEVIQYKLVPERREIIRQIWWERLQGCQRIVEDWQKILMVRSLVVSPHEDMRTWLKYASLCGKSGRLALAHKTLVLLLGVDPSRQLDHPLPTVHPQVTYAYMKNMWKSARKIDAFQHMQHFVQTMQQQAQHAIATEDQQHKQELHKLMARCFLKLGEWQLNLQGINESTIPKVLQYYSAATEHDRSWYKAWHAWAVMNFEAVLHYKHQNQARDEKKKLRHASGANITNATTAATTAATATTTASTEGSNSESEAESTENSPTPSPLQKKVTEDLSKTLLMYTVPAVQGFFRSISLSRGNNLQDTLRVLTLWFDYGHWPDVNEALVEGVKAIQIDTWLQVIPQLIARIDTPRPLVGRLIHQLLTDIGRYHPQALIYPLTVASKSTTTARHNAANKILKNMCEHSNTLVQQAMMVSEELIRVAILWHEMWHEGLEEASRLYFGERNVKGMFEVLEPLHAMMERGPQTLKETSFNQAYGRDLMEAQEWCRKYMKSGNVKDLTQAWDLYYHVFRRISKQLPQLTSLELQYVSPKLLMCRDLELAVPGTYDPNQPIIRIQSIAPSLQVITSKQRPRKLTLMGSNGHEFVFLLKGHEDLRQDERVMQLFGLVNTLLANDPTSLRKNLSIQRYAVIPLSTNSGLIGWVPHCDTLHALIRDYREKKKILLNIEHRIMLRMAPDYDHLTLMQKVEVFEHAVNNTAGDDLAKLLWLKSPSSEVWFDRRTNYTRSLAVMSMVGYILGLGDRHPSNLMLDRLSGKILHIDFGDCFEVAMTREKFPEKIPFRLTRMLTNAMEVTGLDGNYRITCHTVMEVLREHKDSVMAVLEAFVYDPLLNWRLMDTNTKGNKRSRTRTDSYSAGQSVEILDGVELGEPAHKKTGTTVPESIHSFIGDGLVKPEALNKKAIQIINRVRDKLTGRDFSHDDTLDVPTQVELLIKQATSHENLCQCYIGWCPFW

Row | Compound | pIC50 (Human mTOR (FLAG-TOR)) | pIC50 (PI3K-α) | pIC50 (PI3K-γ) | pIC50 (PI3K-α; listed as 531) | pIC50 (PI3K-γ; listed as 531) | pIC50 (PI3K-γ; listed as 530) | pIC50 (PI3K-α; listed as 526) | pIC50 (PI3K-γ; listed as 526) | pIC50 (PI3K-α; listed as 528)
1 | CN(C)CCN1CCN(C(=O)c2ccc(NC(=O)Nc3ccc(-c4nc(N5CCOCC5)nc(N5CCOCC5)n4)cc3)cc2)CC1 [Example 168, 1-[4-({4-[2-(dimethylamino)ethyl]piperazin-1-yl}carbonyl)phenyl]-3-[4-(4,6-dimorpholin-4-yl-1,3,5-triazin-2-yl)phenyl]urea] | 8.44 | 9.00 | 8.52 | – | – | – | – | – | –
2 | CCCCc1nc(-c2ccc(NC(=O)Nc3ccc(C(=O)OC)cc3)cc2)nc(N2CCOCC2)n1 [Example 188, methyl 4-({[4-(4-butyl-6-morpholin-4-yl-1,3,5-triazin-2-yl)phenyl]carbamoyl}amino)benzoate] | 7.96 | 5.12 | 5.62 | – | – | – | – | – | –
3 | CCc1nc(-c2ccc(NC(=O)Nc3ccc(C(=O)OC)cc3)cc2)nc(N2CCOCC2)n1 [Example 225, methyl 4-({[4-(4-ethyl-6-morpholin-4-yl-1,3,5-triazin-2-yl)phenyl]carbamoyl}amino)benzoate] | 7.33 | 6.96 | 6.41 | – | – | – | – | – | –
4 | COC(=O)c1ccc(NC(=O)Nc2ccc(-c3nc(C4=CCOCC4)nc(N4CCOCC4)n3)cc2)cc1 [Example 226, methyl 4-[({4-[4-(3,6-dihydro-2H-pyran-4-yl)-6-morpholin-4-yl-1,3,5-triazin-2-yl]phenyl}carbamoyl)amino]benzoate] | 7.21 | 7.12 | 6.53 | – | – | – | – | – | –
5 | CCCCc1nc(-c2ccc(NC(=O)Nc3ccc(CN4CCN(C)CC4)cc3)cc2)nc(N2CCOCC2)n1 [Example 254, 1-[4-(4-butyl-6-morpholin-4-yl-1,3,5-triazin-2-yl)phenyl]-3-{4-[(4-methylpiperazin-1-yl)methyl]phenyl}urea] | 7.77 | 7.20 | 6.60 | – | – | – | – | – | –
6 | CC(C)(C)OC(=O)N1CC2CN(c3nc(-c4ccc(NC(=O)Nc5ccncc5)cc4)nc(N4CCOCC4)n3)CC(C1)O2 [Example 281, tert-butyl-7-(4-morpholin-4-yl-6-{4-[(pyridin-4-ylcarbamoyl)amino]phenyl}-1,3,5-triazin-2-yl)-9-oxa-3,7-diazabicyclo[3.3.1]nonane-3-carboxylate] | 5.55 | 5.66 | 5.30 | – | – | – | – | – | –
7 | O=C(Nc1ccncc1)Nc1ccc(-c2nc(N3CCOCC3)nc(N3CC4CNCC(C3)O4)n2)cc1 [Example 290, 1-{4-[4-morpholin-4-yl-6-(9-oxa-3,7-diazabicyclo[3.3.1]non-3-yl)-1,3,5-triazin-2-yl]phenyl}-3-pyridin-4-ylurea] | 6.82 and 6.84 | 7.01 | 6.78 | – | – | – | – | – | –
8 | CN1CC2CN(c3nc(-c4ccc(NC(=O)Nc5ccncc5)cc4)nc(N4CCOCC4)n3)CC(C1)O2 [Example 291, 1-{4-[4-(7-methyl-9-oxa-3,7-diazabicyclo[3.3.1]non-3-yl)-6-morpholin-4-yl-1,3,5-triazin-2-yl]phenyl}-3-pyridin-4-ylurea] | 6.72 | 6.43 | 6.15 | – | – | – | – | – | –
9 | CC(=O)N1CC2CN(c3nc(-c4ccc(NC(=O)Nc5ccncc5)cc4)nc(N4CCOCC4)n3)CC(C1)O2 [Example 292, 1-{4-[4-(7-acetyl-9-oxa-3,7-diazabicyclo[3.3.1]non-3-yl)-6-morpholin-4-yl-1,3,5-triazin-2-yl]phenyl}-3-pyridin-4-ylurea] | 7.15 and 7.17 | 5.82 | 5.43 | – | – | – | – | – | –
10 | CS(=O)(=O)N1CC2CN(c3nc(-c4ccc(NC(=O)Nc5ccncc5)cc4)nc(N4CCOCC4)n3)CC(C1)O2 [Example 293, 1-(4-{4-[7-(methylsulfonyl)-9-oxa-3,7-diazabicyclo[3.3.1]non-3-yl]-6-morpholin-4-yl-1,3,5-triazin-2-yl}phenyl)-3-pyridin-4-yl urea] | 6.30 and 6.33 | 6.12 | 6.27 | – | – | – | – | – | –
11 | Cc1ccc(-c2nc(-c3ccc(NC(=O)Nc4ccc(N5CCC(N(C)C)CC5)cc4)cc3)nc(N3CCOCC3)n2)cc1 [Example 339, 1-{4-[4-(dimethylamino)piperidin-1-yl]phenyl}-3-{4-[4-(4-methylphenyl)-6-morpholin-4-yl-1,3,5-triazin-2-yl]phenyl}urea] | 7.05 and 7.10 | 7.15 | 6.31 | 7.15 | 6.31 | – | – | – | –
12 | Cc1ccc(-c2nc(-c3ccc(NC(=O)Nc4ccncc4)cc3)nc(N3CCOCC3)n2)cc1 [Example 340, 1-{4-[4-(4-methylphenyl)-6-morpholin-4-yl-1,3,5-triazin-2-yl]phenyl}-3-pyridin-4-ylurea] | 7.34 and 7.31 | 7.04 | 6.15 | – | – | 6.15 | – | – | –
13 | Cc1ccc(-c2nc(-c3ccc(NC(=O)Nc4ccc(N5CCN(C)CC5)cc4)cc3)nc(N3CCOCC3)n2)cc1 [Example 343, 1-{4-[4-(4-methylphenyl)-6-morpholin-4-yl-1,3,5-triazin-2-yl]phenyl}-3-[4-(4-methylpiperazin-1-yl)phenyl]urea] | 7.40 and 7.32 | 7.01 | 5.17 | – | – | – | 7.02 | 5.17 | –
14 | COC(=O)c1ccc(NC(=O)Nc2ccc(-c3nc(-c4ccc(C)cc4)nc(N4CCOCC4)n3)cc2)cc1 [Example 344, methyl 4-[({4-[4-(4-methylphenyl)-6-morpholin-4-yl-1,3,5-triazin-2-yl]phenyl}carbamoyl)amino]benzoate] | 5.82 and 5.80 | 5.79 | 5.38 | – | – | – | – | – | 5.79
15 | C[C@@H]1COCCN1c1nc(-c2ccc(NC(=O)Nc3ccncc3)cc2)nc(N2CCOC[C@H]2C)n1 [Example 397, 1-(4-(4,6-bis((R)-3-methylmorpholino)-1,3,5-triazin-2-yl)phenyl)-3-(pyridin-4-yl)urea] | 9.80 | 6.76 | 5.68 | – | – | – | – | – | –
16 | C[C@@H]1COCCN1c1nc(-c2ccc(NC(=O)Nc3cccnc3)cc2)nc(C2CCOCC2)n1 [Example 420, (R)-1-(4-(4-(3-methylmorpholino)-6-(tetrahydro-2H-pyran-4-yl)-1,3,5-triazin-2-yl)phenyl)-3-(pyridin-3-yl)urea] | 9.20 | 6.23 | 5.36 | – | – | – | – | – | –
17 | C[C@@H]1COCCN1c1nc(-c2ccc(NC(=O)Nc3ccc(N4CCC(N(C)C)CC4)cc3)cc2)nc(N2CCOC[C@H]2C)n1 [Example 449, 1-(4-(4,6-bis((R)-3-methylmorpholino)-1,3,5-triazin-2-yl)phenyl)-3-(4-(4-(dimethylamino)piperidin-1-yl)phenyl)urea] | 8.72 | 6.54 | 5.79 | – | – | – | – | – | –
18 | O=C(Nc1ccncc1)Nc1ccc(-c2nc(N3CCOCC3)nc(N3C4COCC(O)C3C4)n2)cc1 (stereo not drawn) [Example 480, 1-{4-[4-(5-hydroxy-3-oxa-7-azabicyclo[4.1.1]oct-7-yl)-6-morpholin-4-yl-1,3,5-triazin-2-yl]phenyl}-3-pyridin-4-ylurea] | 8.54 | 7.89 | 7.28 | – | – | – | – | – | –
19 | O=C(Nc1ccc(-c2nc(N3CCOCC3)nc(N3CCOCC3)n2)cc1)Nc1ccnnc1 [Example 481, 1-[4-(4,6-dimorpholin-4-yl-1,3,5-triazin-2-yl)phenyl]-3-pyridazin-4-ylurea] | 8.64 | 7.96 | 7.19 | – | – | – | – | – | –
20 | O=C(Nc1ccc(-c2nc(N3CCOCC3)nc(N3C4CCC3COC4)n2)cc1)Nc1ccnnc1 [Example 483, 1-{4-[4-morpholin-4-yl-6-(3-oxa-8-azabicyclo[3.2.1]oct-8-yl)-1,3,5-triazin-2-yl]phenyl}-3-pyridazin-4-ylurea] | 8.81 | 7.55 | 6.82 | – | – | – | – | – | –
21 | COC(CNc1nc(-c2ccc(NC(=O)Nc3cccnc3)cc2)nc(N2CCOCC2)n1)OC [Example 488, 1-(4-{4-[(2,2-dimethoxyethyl)amino]-6-morpholin-4-yl-1,3,5-triazin-2-yl}phenyl)-3-pyridin-3-ylurea] | 8.47 | 7.38 | 6.74 | – | – | – | – | – | –
22 | CC(C)c1nc(-c2ccc(NC(=O)Nc3ccc(I)cc3)cc2)nc(N2CCOCC2)n1 [Example 490, 1-(4-iodophenyl)-3-{4-[4-(1-methylethyl)-6-morpholin-4-yl-1,3,5-triazin-2-yl]phenyl}urea] | 7.94 | 6.23 | 5.97 | – | – | – | – | – | –
23 | CC(C)c1nc(-c2ccc(NC(=O)Nc3ccc(-c4cnc(N(C)C)nc4)cc3)cc2)nc(N2CCOCC2)n1 [Example 493, 1-{4-[2-(dimethylamino)pyrimidin-5-yl]phenyl}-3-{4-[4-(1-methylethyl)-6-morpholin-4-yl-1,3,5-triazin-2-yl]phenyl}urea] | 7.49 | 5.53 | 5.97 | – | – | – | – | – | –
24 | COC(=O)c1ccc(NC(=O)Nc2ccc(-c3nc(-c4ccccc4)nc(N4CCOCC4)n3)cc2)cc1 [Example 538, methyl 4-({[4-(4-morpholin-4-yl-6-phenyl-1,3,5-triazin-2-yl)phenyl]carbamoyl}amino)benzoate] | 9.90 | 6.48 | 6.71 | – | – | – | – | – | –
25 | C[C@H]1COCCN1c1nc(-c2ccc(NC(=O)Nc3ccc(C(=O)O)cc3)cc2)nc(N2CCOC[C@@H]2C)n1 [Example 549, 4-{[(4-{4,6-bis[(3S)-3-methylmorpholin-4-yl]-1,3,5-triazin-2-yl}phenyl)carbamoyl]amino}benzoic acid] | 7.58 | 6.14 | 5.34 | – | – | – | – | – | –
26 | Cc1ccc(-c2nc(-c3ccc(NC(=O)Nc4ccc(C(=O)N5CCCCC5)cc4)cc3)nc(N3CCOCC3)n2)cc1 [Example 555, 1-{4-[4-(4-methylphenyl)-6-morpholin-4-yl-1,3,5-triazin-2-yl]phenyl}-3-[4-(piperidin-1-ylcarbonyl)phenyl]urea] | 6.39 | 7.06 | 6.42 | – | – | – | – | – | –
27 | COC(=O)c1ccc(NC(=O)Nc2ccc(-c3nc(-c4cccs4)nc(N4CCOCC4)n3)cc2)cc1 [Example 560, methyl 4-[({4-[4-morpholin-4-yl-6-(2-thienyl)-1,3,5-triazin-2-yl]phenyl}carbamoyl)amino]benzoate] | 7.00 | 6.57 | 6.30 | – | – | – | – | – | –
